In paper PMC8145938, “Triphenilphosphonium Analogs of Chloramphenicol as Dual-Acting Antimicrobial and Antiproliferating Agents” (Antibiotics, 2021):

Assays:
[1] = system: E. coli 70S ribosomes; set-up: method as in PMID 33916420; conditions: displacement of BODIPY-ERY from 70S ribosomes; read-out: apparent dissociation constant (KDapp); cited from earlier work
[2] = system: B. subtilis cells; test: membrane potential by DiS-C3-(5) fluorescence; type: cell-based, Bacillus subtilis
Description: Thus, we further examined the effect of CAM-Cn-TPP on the bacterial membrane potential of B. subtilis. In particular, the membrane potential of B. subtilis can be estimated from the fluorescence of the potential-sensitive dye, DiS-C3-(5), by measuring the changing fluorescence. The potential-dependent accumulation of the dye inside the bacterial cell causes quenching and leads to a decrease in fluorescence. Under the influence of substances that reduce the membrane potential, the dye is released and the fluorescence increases. […] Therefore, the action of CAM-Cn-TPP may have a double effect on bacterial cells and be based on the depolarization of the bacterial membrane by analogy with the mechanism of action of Cn-TPP [17].
The membrane potential of B. subtilis was estimated by measuring the fluorescence of the potential-dependent probe, DiS-C3-(5). B. subtilis from the overnight culture were seeded into a fresh LB medium, followed by growth for […], until reaching the optical density of 0.8 at 600 nm. Then, the bacteria were diluted 20-fold in a buffer containing 100 mM of KCl and 10 mM of Tris, pH 7.4. The fluorescence was measured at 670 nm (excitation at 630 nm) using a Fluorat-02-Panorama fluorimeter.

[3] = system: ribosome stalling on trpL mRNA in a cell-free translation system; test: toeprinting (primer extension inhibition) assay on trpL mRNA; type: biochemical; conditions: trpL mRNA template, 30 μM compound
Description: To investigate the mechanism of action of CAM-C10-TPP and CAM-C14-TPP in the translation process, a primer extension inhibition assay (toeprinting) was used. This method allows for the unambiguous identification of drug-induced ribosome stalling sites along the mRNA, with single-nucleotide precision. This technique is also used to determine the context-specificity of antibiotic action. For this experiment, trpL mRNAs were chosen as the template, as in the pDualrep2 reporter system. […] Compared to the results obtained previously for CAM-C4-TPP using rst1 and rst2 mRNA templates, more unambiguous results were obtained using a trpL mRNA template. The main drug-induced ribosome stalling sites are different for CHL and CAM-Cn-TPP, and there are also CAM-Cn-TPP-specific stalling positions.
The toeprinting assay was carried out using trpL mRNA as a template, as described in [73], and the reactions were preincubated for 5 min with 30 μM of the tested compound.

[4] = system: MDA-MB-231 and BT-549 TNBC-sensitive and chemoresistant cells; test: cancer cell proliferation / viability assay (MTT); type: cell-based; conditions: 3 days treatment
Description: We recently provided in vivo [67] and in vitro [68] evidence that certain bactericidal antibiotics suppress tumor growth by inducing mitochondrial dysfunction. […] These cells differ from the corresponding parental cells and display a different response to the same microenvironmental stimuli, allowing them to reduce their proliferating rate and survive chemotherapeutic treatment. Here, we tested the abovementioned CAM-TPP derivatives on chemoresistant triple negative breast cancer (TNBC) cell models, as well as on corresponding CSC-like spheroid cells. We created several relevant models based on TNBC cell lines, particularly MDA-MB-231 and BT-549, to determine their resistance to cyclophosphamide. To create CSC-like cells, parental cells were resuspended in nonadherent conditions to form tumorspheres.
The MDA-MB-231 (RRID: CVCL_0062) and BT-549 (RRID: CVCL_1092) cell lines were purchased from ATCC and cultured in DMEM/F12 (Gibco, Life Technologies, 31330-038) supplemented with 10% FBS, 1% Pen-Strep, 1% Sodium Pyruvate, and 1% L-glutamine. Chemoresistant cell lines were established with continuous treatment for 6 months with the anticancer therapeutic agent, cyclophosphamide (Rcyclo), as previously described. These cell lines were authenticated using short tandem repeat (STR) profiling within the last three years. […] The relative numbers of tumourspheres per well were counted manually. […]
The survival assay was performed essentially as described earlier. […] The absorbance was measured at 570 nm in Bio Spec 1601, Shimadzu spectrometer. […] The results were expressed as the means ± SEM. The data were analyzed using the GraphPad Prism 7 PRIZM computer software under the license of the Statistical Department (Vall’ d Hebron Hospital, Barcelona, Spain).

## O=C(CCCC[P+](c1ccccc1)(c1ccccc1)c1ccccc1)N[C@H](CO)[C@H](O)c1ccc([N+](=O)[O-])cc1 [CAM-C4-TPP]
[1]
  Kd: 610 ± 70 nM
[2]
  concentration at which the compound takes effect on membrane potential: ≥ 10 µM
[3]
  drug-induced ribosome stalling site: blocked the ribosome progression at Val6 (Figure 2D, red arrowhead) and slightly blocked it at Ile4
[4]
  effect on proliferation of TNBC cell lines: but not CAM-C4-TPP, significantly reduced the proliferation of TNBC cell lines
